The target in test [1] is IRAK4 (Homo sapiens (Human), UniProt Q9NWZ3). Briefly: IRAK4 Inhibition Assay. The test is classed as biochemical. The following applies: ATP 500 μM; IRAK4 0.6 nM; read-out: IRAK4 IC50. The method, boiled down:
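Mobility-shift readout: fluorescent substrate and phosphoproduct resolved electrophoretically on Caliper LabChip 3000 after EDTA quench (35 mM). Enzyme reaction of IRAK4, substrates and test compound ran 60 min at room temperature.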

Test [2] deals with TLR2 induced IL-6 in peripheral blood mononuclear cells (PBMCs). The test is described as follows: PBMC TLR2 Induced IL-6 Assay. The test is classed as cell-based, human. The following applies: Homo sapiens, PBMC, human PBMCs, lipoteichoic acid stimulated, IL-6 by ELISA; for IC50: read-out: Cell IC50; for EC50: read-out: Cell EC50. In short, it runs like this:
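Lipoteichoic acid at 10 µg/ml served as TLR2 stimulus for 5 hours, following a 30-minute compound pretreatment at 37° C. Cells were Ficoll-isolated human PBMCs, 250000 cells/well, cultured in RPMI plus 10% heat-inactivated FCS.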

As a reminder, the IC50 is the concentration that gives 50% inhibition. As a reminder, the EC50 is the midpoint of the concentration-response curve.

Chain of IRAK4 (Q9NWZ3 whole entry, species assumed): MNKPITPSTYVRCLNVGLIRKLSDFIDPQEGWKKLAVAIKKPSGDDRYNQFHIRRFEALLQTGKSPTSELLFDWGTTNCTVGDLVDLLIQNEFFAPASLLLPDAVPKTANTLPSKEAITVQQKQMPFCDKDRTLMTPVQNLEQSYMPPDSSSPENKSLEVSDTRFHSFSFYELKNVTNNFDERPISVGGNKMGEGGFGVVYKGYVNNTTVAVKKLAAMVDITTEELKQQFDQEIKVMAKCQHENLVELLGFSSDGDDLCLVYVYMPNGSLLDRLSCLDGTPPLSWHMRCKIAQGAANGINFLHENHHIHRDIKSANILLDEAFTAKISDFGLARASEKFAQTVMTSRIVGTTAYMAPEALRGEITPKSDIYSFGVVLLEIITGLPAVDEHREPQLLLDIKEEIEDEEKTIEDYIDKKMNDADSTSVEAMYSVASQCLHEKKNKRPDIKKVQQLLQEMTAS

For the compound `CC(C)(O)[C@H](F)CNC(=O)c1cnc(-n2ncc3cc(C#N)cnc32)cc1NC1CCN(c2ncc(F)cn2)CC1` [Example 540], the IC50 in test [1] was 3 nM; in test [2] it was 158 nM.

Consider `CC(C)(O)[C@H](F)CNC(=O)c1cnc(-n2ncc3cc(C#N)cnc32)cc1NC1CN(c2ncc(Cl)cn2)C1` [Example 541], for which the IC50 in test [1] is 14.4 nM; in test [2], 149 nM.

Regarding `COC(=O)N1CC(Nc2cc(-n3ncc4cc(C#N)cnc43)ncc2C(=O)NC[C@@H](F)C(C)(C)O)C1` [Example 542], the IC50 in test [1] amounted to 7.3 nM; in test [2], 973 nM.

As to `CCOC(=O)N1CC(Nc2cc(-n3ncc4cc(C#N)cnc43)ncc2C(=O)NC[C@@H](F)C(C)(C)O)C1` [Example 543], the half-maximal inhibitory concentration (IC50) in test [1] came out at 6.8 nM; in test [2], 404 nM.

Consider `CC(C)(O)[C@H](F)CNC(=O)c1cnc(-n2ncc3cc(C#N)cnc32)cc1NC1COC1` [Example 546], for which the IC50 in test [1] amounted to 3.7 nM. For the same compound, the EC50 in test [2] came to 257 nM.

Consider `CC(C)(O)[C@H](F)CNC(=O)c1cnc(-n2ncc3cc(F)cnc32)cc1NC1CCCOC1` (stereo partly shown) [Example 547], for which the IC50 in test [1] turned out to be 16.6 nM; in test [2], 591 nM. Also, the EC50 in test [2] is 65 nM.

As for `CC(C)(O)[C@H](F)CNC(=O)c1cnc(N2CCc3cc(C#N)cnc32)cc1NC1COC1` [Example 549], the IC50 in test [1] turned out to be 16.8 nM. Also, in test [2], the EC50 is 413 nM and the IC50 is 757 nM.

Consider `CC(C)(O)[C@H](F)CNC(=O)c1cnc(-n2ncc3cc(F)cnc32)cc1NC1COC1` [Example 550], for which the concentration for half-maximal inhibition (IC50) in test [1] was determined as 10.3 nM. For the same compound, the EC50 in test [2] was found to be 416 nM.

Turning to `CC(C)(O)[C@H](F)CNC(=O)c1cnc(-n2ncc3cc(Cl)cnc32)cc1NC1COC1` [Example 551], the half-maximal inhibitory concentration (IC50) turned out to be 12.6 nM in test [1] and 212 nM in test [2].

As to `CO[C@H]1CC[C@H](NC(=O)c2cnc(-n3ncc4cc(C#N)cnc43)cc2NC2COC2)CC1` [Example 552], the IC50 is 13.4 nM in test [1] and 213 nM in test [2].

On to `CC(C)(O)CCNC(=O)c1cnc(-n2ncc3cc(C#N)cnc32)cc1NC1COC1` [Example 553], for which the IC50 in test [1] was determined as 11.2 nM; in test [2], 298 nM.

As to `CC(C)(O)[C@H](F)CNC(=O)c1cnc(-n2ncc3cc(C#N)cnc32)cc1NC1COCC1(F)F` (stereo partly shown) [Example 554], the values for the IC50 in test [1] and in test [2] were 5.5 nM and 370 nM, respectively.

With `CC(C)(O)[C@H]1CC[C@H](NC(=O)c2cnc(-n3ncc4cc(C#N)cnc43)cc2NC2COC2)CC1` [Example 555], the IC50 turned out to be 7 nM in test [1] and 47 nM in test [2].

With `CC(C)(O)[C@H]1CC[C@H](NC(=O)c2cnc(-n3ncc4cc(Cl)cnc43)cc2NC2COC2)CC1` [Example 556], the IC50 in test [1] was found to be 6.2 nM; in test [2], 305 nM.

As to `CC(C)CCNC(=O)c1cnc(-n2ncc3cc(C#N)cnc32)cc1NC1COC1` [Example 557], the results for the IC50 in test [1] and in test [2] were 5.1 nM and 475 nM, respectively.

Consider `N#Cc1cc2cnn(-c3cc(NC4COC4)c(C(=O)NCCC4CC4)cn3)c2nc1N` [Example 558], for which the IC50 in test [1] worked out at 6.1 nM; in test [2] it was 615 nM.

As for `CCCCNC(=O)c1cnc(-n2ncc3cc(C#N)c(N)nc32)cc1NC1COC1` [Example 559], the IC50 in test [1] amounted to 5.3 nM; in test [2], 18 nM.

For the compound `CC(C)CCNC(=O)c1cnc(-n2ncc3cc(C#N)c(N)nc32)cc1NC1COC1` [Example 560], the values for the IC50 in test [1] and in test [2] were 3.4 nM and 254 nM, respectively.

On to `CCCCNC(=O)c1cnc(-n2ncc3cc(C#N)cnc32)cc1NC1COC1` [Example 561], for which the IC50 in test [1] was 7.8 nM; in test [2], 321 nM.

Turning to `CC(C)(O)[C@H](F)CNC(=O)c1cnc(-n2ncc3cc(F)cnc32)cc1NC1CCOCC1` [Example 562], the IC50 in test [1] was determined as 12.5 nM. Further, the EC50 in test [2] came out at 255 nM.

Consider `CC(C)(O)[C@H](F)CNC(=O)c1cnc(-n2ncc3cc(C#N)cnc32)cc1NCCC(F)(F)F` [Example 563, (R)-6-(5-Cyano-1H-pyrazolo[3,4-b]pyridin-1-yl)-N-(2-fluoro-3-hydroxy-3-methylbutyl)-4-((3,3,3-trifluoropropyl)amino)nicotinamide], for which, in test [1], the IC50 was 5 nM. Besides, the EC50 in test [2] was 159 nM.

As for `COc1cnc(NC(=O)c2cnc(-n3ncc4cc(C#N)cnc43)cc2NC(C)C)cn1` [Example 564], the IC50 in test [1] came to 20.1 nM. In addition, in test [2], the EC50 turned out to be 659 nM.

Turning to `CC(C)Nc1cc(-n2ncc3cc(C#N)cnc32)ncc1C(=O)NCc1nn[nH]n1` [Example 566], the IC50 in test [1] was determined as 17.2 nM. Also, the EC50 in test [2] is 637 nM.

For the compound `CC(C)Nc1cc(N2CCc3cc(C#N)cnc32)ncc1C(=O)NC[C@@H](F)C(C)(C)O` [Example 567], the IC50 in test [1] was found to be 9.9 nM. For the same compound, in test [2], the EC50 is 164 nM and the IC50 is 264 nM.

With `CCNc1cc(-n2ncc3cc(C#N)cnc32)ncc1C(=O)NC[C@@H](F)C(C)(C)O` [Example 568], the IC50 came out at 8.9 nM in test [1] and 1370 nM in test [2]. Moreover, the EC50 in test [2] was found to be 661 nM.

As for `CC(C)[C@@H](CO)Nc1cc(-n2ncc3cc(C#N)cnc32)ncc1C(=O)NC[C@@H](F)C(C)(C)O` [Example 569], in test [1], the IC50 was 13 nM. Besides, the EC50 in test [2] turned out to be 242 nM.

Turning to `CC(C)(O)[C@H](F)CNC(=O)c1cnc(-n2ncc3cc(C#N)cnc32)cc1NCC(C)(C)N1CCOCC1` [Example 570], in test [1], the IC50 was 10.7 nM. For the same compound, the EC50 in test [2] is 425 nM.

`CC(C)(O)[C@H](F)CNC(=O)c1cnc(-n2ncc3cc(C#N)cnc32)cc1NCc1cocn1` [Example 571]: the values for the IC50 in test [1] and in test [2] were 15.2 nM and 101 nM, respectively.

With `CC(C)(O)[C@H](F)CNC(=O)c1cnc(-n2ncc3cc(C#N)cnc32)cc1NCC(F)F` [Example 574], the figures for the IC50 in test [1] and in test [2] were 15.3 nM and 258 nM, respectively.

Turning to `CC(C)(C)CNc1cc(-n2ncc3cc(C#N)cnc32)ncc1C(=O)NC[C@@H](F)C(C)(C)O` [Example 576], the values for the IC50 in test [1] and in test [2] were 5.8 nM and 153 nM, respectively.

For `CCNc1cc(-n2ncc3cc(C#N)c(N)nc32)ncc1C(=O)NC[C@@H](F)C(C)(C)O` [Example 577], the IC50 was found to be 3.2 nM in test [1] and 175 nM in test [2].

`CCCNc1cc(-n2ncc3cc(C#N)c(N)nc32)ncc1C(=O)NC[C@@H](F)C(C)(C)O` [Example 578]: the IC50 in test [1] is 2.6 nM; in test [2], 218 nM.

As for `CC(C)Nc1cc(-n2ncc3cnc(N)nc32)ncc1C(=O)NC[C@@H](F)C(C)(C)O` [Example 579], the IC50 was 3.9 nM in test [1] and 269 nM in test [2].

`CCNc1cc(-n2ncc3cnc(N)nc32)ncc1C(=O)NC[C@@H](F)C(C)(C)O` [Example 580]: the 50% inhibitory concentration (IC50) was 10.7 nM in test [1] and 487 nM in test [2].

For the compound `CC(C)(O)[C@H](F)CNC(=O)c1cnc(-n2ncc3cc(C#N)cnc32)cc1NCC1(F)CCC1` [Example 581], the IC50 in test [1] was 8.4 nM; in test [2], 227 nM.

For the compound `C[C@@H](F)CNc1cc(-n2ncc3cc(C#N)cnc32)ncc1C(=O)NC[C@@H](F)C(C)(C)O` [Example 582], the results for the IC50 in test [1] and in test [2] were 3.8 nM and 109 nM, respectively.

`C[C@H](F)CNc1cc(-n2ncc3cc(C#N)cnc32)ncc1C(=O)NC[C@@H](F)C(C)(C)O` [Example 583]: the IC50 is 4.1 nM in test [1] and 188 nM in test [2].

For the compound `CC(C)Nc1cc(-n2ncc3cc(C#N)cnc32)ncc1C(=O)NC1CCN(C(=O)C2CN(S(C)(=O)=O)C2)CC1` [Example 584], in test [1], the IC50 turned out to be 10 nM. Moreover, in test [2], the EC50 worked out at 209 nM and the IC50 came to 508 nM.

As for `CC(C)(CN)CNc1cc(-n2ncc3cc(C#N)cnc32)ncc1C(=O)NC[C@@H](F)C(C)(C)O` [Example 585], the IC50 in test [1] was 8.5 nM; in test [2], 147 nM.

`CC(C)(O)[C@H](F)CNC(=O)c1cnc(-n2ncc3cc(C#N)cnc32)cc1NCCNS(C)(=O)=O` [Example 586]: the values for the IC50 in test [1] and in test [2] were 9.7 nM and 259 nM, respectively.

As for `CC(C)(O)[C@H](F)CNC(=O)c1cnc(-n2ncc3cc(C#N)cnc32)cc1NCCNC(=O)OC(C)(C)C(F)(F)F` [Example 587], the IC50 is 13.8 nM in test [1] and 298 nM in test [2].

As to `CC[C@@H](CO)Nc1cc(-n2ncc3cc(C#N)cnc32)ncc1C(=O)NC[C@@H](F)C(C)(C)O` [Example 588], the figures for the IC50 in test [1] and in test [2] were 4.4 nM and 506 nM, respectively.

Take `CC[C@@H](CO)Nc1cc(-n2ncc3cc(Cl)cnc32)ncc1C(=O)NC[C@@H](F)C(C)(C)O` [Example 589]: the IC50 in test [1] is 4.1 nM; in test [2], 361 nM.

Take `C[C@H](F)CNc1cc(-n2ncc3cc(C#N)c(N)nc32)ncc1C(=O)NC[C@@H](F)C(C)(C)O` [Example 590]: the IC50 in test [1] is 1.9 nM; in test [2] it was 129 nM.

For the compound `C[C@@H](F)CNc1cc(-n2ncc3cc(C#N)c(N)nc32)ncc1C(=O)NC[C@@H](F)C(C)(C)O` [Example 591], the 50% inhibitory concentration (IC50) in test [1] worked out at 2.7 nM; in test [2], 160 nM.

With `COC(C)(C)CNc1cc(-n2ncc3cc(C#N)cnc32)ncc1C(=O)NC[C@@H](F)C(C)(C)O` [Example 593], the 50% inhibitory concentration (IC50) in test [1] is 19.6 nM; in test [2], 408 nM.

Turning to `CC(C)(O)[C@H](F)CNC(=O)c1cnc(-n2ncc3cc(C#N)cnc32)cc1NCCCF` [Example 595], the IC50 in test [1] stood at 5.3 nM; in test [2], 129 nM.

As for `CC(C)C(O)CNc1cc(-n2ncc3cc(C#N)cnc32)ncc1C(=O)NC[C@@H](F)C(C)(C)O` (stereo partly shown) [Example 597], the figures for the IC50 in test [1] and in test [2] were 15.6 nM and 307 nM, respectively.

Regarding `CC(C)(O)[C@H](F)CNC(=O)c1cnc(-n2ncc3cc(C#N)cnc32)cc1NCCOC(F)F` [Example 598], the half-inhibitory concentration (IC50) was determined as 16.6 nM in test [1] and 54 nM in test [2].

Source of the values: patent US9169252B2 (BRISTOL-MYERS SQUIBB COMPANY, priority 2014, dated 2015).
